According to patent US8895565B2, “Heterocyclic compound and use of the same” (priority 2009, dated 2014):

How the values were obtained:
[1] = biological target: T1, EGF receptor tyrosine kinase (Homo sapiens, UniProt P00533); assay: Test (a): in vitro inhibition of the enzyme EGF receptor tyrosine kinase; type: biochemical; settings: receptor tyrosine kinase partially purified from A-431 cells, EGF-stimulated
T1 construct: Receptor tyrosine kinase was obtained from A-431 cells (derived from human vulval carcinoma) in partially purified form; endogenous in cells; host or cells: A-431 cells (human vulval carcinoma); solubilised membrane preparation
T1 sequence (P00533 25-1210): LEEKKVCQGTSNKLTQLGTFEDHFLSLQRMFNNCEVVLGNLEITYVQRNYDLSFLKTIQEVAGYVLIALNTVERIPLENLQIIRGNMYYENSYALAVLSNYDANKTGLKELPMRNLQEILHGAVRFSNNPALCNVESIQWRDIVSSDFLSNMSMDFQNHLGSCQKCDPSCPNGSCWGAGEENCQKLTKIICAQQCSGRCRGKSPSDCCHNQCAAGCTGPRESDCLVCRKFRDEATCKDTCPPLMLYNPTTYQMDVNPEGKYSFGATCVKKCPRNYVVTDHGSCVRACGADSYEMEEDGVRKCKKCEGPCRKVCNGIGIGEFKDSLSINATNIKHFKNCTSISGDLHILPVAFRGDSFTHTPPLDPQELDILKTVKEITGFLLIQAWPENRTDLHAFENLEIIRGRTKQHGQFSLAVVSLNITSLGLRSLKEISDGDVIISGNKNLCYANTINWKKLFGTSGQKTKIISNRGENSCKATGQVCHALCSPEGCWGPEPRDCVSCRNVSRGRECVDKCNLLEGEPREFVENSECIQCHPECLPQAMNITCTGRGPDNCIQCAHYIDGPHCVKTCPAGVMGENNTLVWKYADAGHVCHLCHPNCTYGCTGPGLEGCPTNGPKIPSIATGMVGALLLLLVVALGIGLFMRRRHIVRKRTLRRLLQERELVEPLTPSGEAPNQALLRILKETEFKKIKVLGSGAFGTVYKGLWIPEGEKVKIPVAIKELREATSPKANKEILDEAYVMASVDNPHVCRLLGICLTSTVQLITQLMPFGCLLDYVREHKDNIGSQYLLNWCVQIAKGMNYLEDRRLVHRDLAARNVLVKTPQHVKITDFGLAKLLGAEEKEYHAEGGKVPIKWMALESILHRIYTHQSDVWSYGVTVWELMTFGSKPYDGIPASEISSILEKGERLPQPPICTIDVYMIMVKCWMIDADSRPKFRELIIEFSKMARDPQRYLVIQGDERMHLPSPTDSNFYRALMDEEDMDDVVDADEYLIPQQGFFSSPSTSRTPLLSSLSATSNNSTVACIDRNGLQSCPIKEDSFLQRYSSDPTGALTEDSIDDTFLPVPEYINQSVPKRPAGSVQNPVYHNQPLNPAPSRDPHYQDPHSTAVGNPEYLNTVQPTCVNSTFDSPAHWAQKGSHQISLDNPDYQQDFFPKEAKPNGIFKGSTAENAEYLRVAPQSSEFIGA
T1 sequence (P01133 971-1023 partner limits assumed): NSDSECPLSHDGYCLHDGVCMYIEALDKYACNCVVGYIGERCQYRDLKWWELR
Description: (a) In vitro assay for measuring the effect of a test compound in inhibiting the enzyme EGF receptor tyrosine kinase
Receptor tyrosine kinase was obtained from A-431 cells (derived from human vulval carcinoma) in partially purified form by a method relevant to a method shown in Carpenter et al., J. Biol. Chem., 1979, 254, 4884, Cohen et. al., J. Biol. Chem., 1982, 257, 1523, and Braun et al., J. Biol. Chem., 1984, 259, 2051.
A-431 cells were grown in Dulbecco's modified Eagle's medium (DMEM) containing 5% fetal calf serum (FCS) up to a confluent state. The resultant cells were homogenized in a hypotonic borate/EDTA buffer (pH 10.1). The homogenate was centrifuged at 400×g for 10 minutes at 0° C. to 4° C. […]
The test compound/EGF mixture solution (5 μl) was added to the test enzyme solution (10 μl) and the mixture was incubated at 0° C. to 4° C. for 30 minutes. […] Radioactivity present in the paper-filter was measured by a liquid scintillation counter (Sequence A). […] Receptor tyrosine kinase inhibition was indicated by inhibition ratio (%), which was calculated in accordance with the following equation, provided that the measurement results of sequence A is expressed by SA, the measurement results of sequence B by SB, and the measurement results of sequence C by SC. […] Subsequently, within a concentration range of a test compound providing IC50 value, the extent of inhibition was determined.

[2] = test system: human nasopharyngeal cancer cell line KB; assay: Test (b): in vitro inhibition of EGF-stimulated growth of KB cells (MTT); type: cell-based; settings: EGF 10 ng/ml
Description: (b) In vitro assay for measuring the effect of a test compound in inhibiting growth of human nasopharyngeal cancer cell line KB by EGF-stimulation
KB cells were seeded into wells at a density of 1×10^4 to 1.5×10^4 cells per well and grown in DMEM supplemented with 5% FCS (charcoal-stripped) for 24 hours. After incubation for 3 days, cell growth was determined based on the extent of blue color occurrence, which was produced by metabolizing a MTT tetrazolium dye. Subsequently, cell growth was determined in the presence of EGF (10 ng/ml) or in the presence of EGF (10 ng/ml) and a test compound within a predetermined concentration range. Then, an IC50 value could be calculated.

[3] = test system: liver cell growth stimulation induced by growth factor TGFα; assay: Test (c): in vivo inhibition of liver cell growth stimulation induced by TGFα (BrdU uptake); settings: Rattus norvegicus; male rats, oral, inhibition of liver cell proliferation by BrdU uptake, approximate ED50
Description: (c) In vivo assay for measuring the effect of a test compound (usually, ball-milled, prepared as a suspension in 0.5% polysorbate, and orally administered) in inhibiting liver cell growth stimulation induced by administration of growth factor TGFα (subcutaneous administration of 400 μg/kg, i.e., twice a usual dose, 3 hours and 7 hours respectively after administration of the test compound) in a group of male rats
In a control group of rats, administration of TGFα causes liver cell growth stimulation as large as on average 5 times.
Cell growth of control animals and test animals was measured in accordance with the following manner:
On the morning of the day after a test compound (or 0.5% polysorbate in a control group) was administered, bromodeoxyuridine (BrdU; intraperitoneally 100 mg/kg) was administered to animals. Four hours later, the animals were killed and the livers were excised out. Slices were cut out from each liver, and BrdU uptake was measured in the same manner as in conventional immunohistological techniques described below:
To calculate an approximate ED50 value on inhibition of liver cell proliferation measured by inhibition of BrdU uptake, tests were further performed using the test compound within a predetermined dose range.

[4] = test system: xenografts of the human vulval epidermoid carcinoma cell line A-431; assay: Test (d): in vivo inhibition of growth of A-431 xenografts in athymic nude mice; settings: tumor volume vs untreated control, dose of 50 mg/day/weight (kg), oral, once per day
Description: (d) In vivo assay on a group of athymic nude mice (strain ONU: Alpk) for determining the effect of a test compound (usually, ball-milled, prepared as a suspension in 0.5% polysorbate, and orally administered) in inhibiting the growth of xenografts of the human vulval epidermoid carcinoma cell line A-431
A-431 cells were maintained in a cultured product in DMEM having 5% FCS and 2 mM glutamine supplemented thereto. Freshly cultured cells were harvested by trypsinization and subcutaneously injected into both flanks of each of many donor nude mice (10000000 cells/0.1 ml/mouse). When a sufficient amount of tumorigen was obtained (about 9 to 14 days later), fragments of tumor tissue were transplanted in the flanks of recipient nude mice (test day 0). […] To these groups of mice, administration of the test compound was commenced. The test compound was administered once per day continuously for 13 days in total (including test day 7 to 19). In some tests, administration of the test compound was continued beyond test day 19, for example, to test day 26. In each case, the animals were killed on the following day and final tumor volume was calculated from the measurement values of the length and width of the tumors. The suppression percentage was calculated from the resultant tumor volume based on the control (untreated).

Row | IC50 [1] [nM] | IC50 [2] [nM] | SMILES | ED50 [3] [mg/kg] | suppression rate in Test (d) [4] [%]
1 | 240 | 800 | CCOC(=O)c1ccc(CNc2ncnc(C)c2C#Cc2ccc(C(F)(F)F)cc2)o1 [Compound No. 1, Ethyl 5-{6-methyl-5-{[4-(trifluoromethyl)phenyl]ethynyl}pyrimidin-4-ylaminomethyl}-2-furancarboxylate] | < 12.1 | 68
2 | 220 | 700 | COC(=O)c1ccc(CNc2ncnc(C)c2C#Cc2ccc(C(F)(F)F)cc2)o1 [Compound No. 2, Methyl 5-(6-methyl-5-{[4-(trifluoromethyl)phenyl]ethynyl}pyrimidin-4-ylaminomethyl)-2-furancarboxylate] | < 11.8 | 69
